Experimental data: ChEMBL document CHEMBL1136059 (Bioorg Med Chem Lett, 2002); call rule not given here

Key:
[1] = target: T1, Prostaglandin G/H synthase 2 (Homo sapiens) (UniProt P35354); test: In vitro inhibition of cyclooxygenase-2 via inhibition of PGE-2 generation by LPS-stimulated monocytes isolated from human blood at a concentration of 20 uM; assay type: functional
T1 sequence (whole entry): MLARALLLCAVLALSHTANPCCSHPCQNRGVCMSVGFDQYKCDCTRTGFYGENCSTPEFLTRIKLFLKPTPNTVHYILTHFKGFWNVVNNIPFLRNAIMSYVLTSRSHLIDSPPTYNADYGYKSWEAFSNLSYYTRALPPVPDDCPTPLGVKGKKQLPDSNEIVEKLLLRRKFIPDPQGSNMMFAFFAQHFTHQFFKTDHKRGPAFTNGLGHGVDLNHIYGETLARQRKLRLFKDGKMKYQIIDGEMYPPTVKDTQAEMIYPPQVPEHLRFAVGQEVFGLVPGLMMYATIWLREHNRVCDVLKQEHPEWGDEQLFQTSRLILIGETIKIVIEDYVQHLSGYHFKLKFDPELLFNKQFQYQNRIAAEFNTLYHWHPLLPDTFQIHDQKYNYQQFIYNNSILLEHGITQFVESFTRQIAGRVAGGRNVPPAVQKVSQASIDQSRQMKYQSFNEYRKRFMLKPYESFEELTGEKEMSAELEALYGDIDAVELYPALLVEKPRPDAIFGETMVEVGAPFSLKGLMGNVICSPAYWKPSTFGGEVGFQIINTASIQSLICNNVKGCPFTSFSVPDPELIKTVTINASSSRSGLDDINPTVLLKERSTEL

[2] = target: T2, Prostaglandin G/H synthase 2 (Homo sapiens, UniProt P35354); assay type: functional
T2 sequence (P35354 whole entry): T1 sequence (whole entry)

[3] = target: T3, Prostaglandin G/H synthase 1 (Homo sapiens, UniProt P23219); assay type: functional
[4] = target: T3, Prostaglandin G/H synthase 1; test: In vitro inhibition of cyclooxygenase-1 via inhibition of TXB2 generation in the presence of 1 uM arachidonic acid in human platelets; assay type: functional
[5] = target: T1, Prostaglandin G/H synthase 2 (Homo sapiens); test: In vitro inhibition of cyclooxygenase-2 via inhibition of PGE-2 generation by LPS-stimulated monocytes isolated from human blood at concentration of 20 uM; assay type: functional
[6] = target: T3, Prostaglandin G/H synthase 1; test: In vitro inhibition of cyclooxygenase-1 via inhibition of TXB2 generation in the presence of 1 uM arachidonic acid in human platelets at concentration of 10 uM; assay type: functional
[7] = target: T3, Prostaglandin G/H synthase 1; test: In vitro inhibition of cyclooxygenase-1 via inhibition of TXB2 generation in the presence of 1 uM arachidonic acid in human platelet; assay type: functional
[8] = target: T1, Prostaglandin G/H synthase 2 (Homo sapiens); test: In vitro inhibition of cyclooxygenase-2 via inhibition of PGE-2 generation by LPS-stimulated monocytes isolated from human blood; assay type: functional
[9] = target: T2, Prostaglandin G/H synthase 2; test: Tested in vitro for inhibition of cyclooxygenase-2 in human blood assay; assay type: functional
[10] = target: T3, Prostaglandin G/H synthase 1; test: Tested in vitro for inhibition of cyclooxygenase-1 in human blood assay; assay type: functional
[11] = target: T2, Prostaglandin G/H synthase 2; test: In vitro inhibition of cyclooxygenase-2 via inhibition of PGE-2 generation by LPS-stimulated monocytes isolated from human blood; inactive; assay type: functional
[12] = target: T3, Prostaglandin G/H synthase 1; test: In vitro inhibition of cyclooxygenase-1 via inhibition of TXB2 generation in the presence of 1 uM arachidonic acid in human platelets

T3 sequence (P23219 whole entry): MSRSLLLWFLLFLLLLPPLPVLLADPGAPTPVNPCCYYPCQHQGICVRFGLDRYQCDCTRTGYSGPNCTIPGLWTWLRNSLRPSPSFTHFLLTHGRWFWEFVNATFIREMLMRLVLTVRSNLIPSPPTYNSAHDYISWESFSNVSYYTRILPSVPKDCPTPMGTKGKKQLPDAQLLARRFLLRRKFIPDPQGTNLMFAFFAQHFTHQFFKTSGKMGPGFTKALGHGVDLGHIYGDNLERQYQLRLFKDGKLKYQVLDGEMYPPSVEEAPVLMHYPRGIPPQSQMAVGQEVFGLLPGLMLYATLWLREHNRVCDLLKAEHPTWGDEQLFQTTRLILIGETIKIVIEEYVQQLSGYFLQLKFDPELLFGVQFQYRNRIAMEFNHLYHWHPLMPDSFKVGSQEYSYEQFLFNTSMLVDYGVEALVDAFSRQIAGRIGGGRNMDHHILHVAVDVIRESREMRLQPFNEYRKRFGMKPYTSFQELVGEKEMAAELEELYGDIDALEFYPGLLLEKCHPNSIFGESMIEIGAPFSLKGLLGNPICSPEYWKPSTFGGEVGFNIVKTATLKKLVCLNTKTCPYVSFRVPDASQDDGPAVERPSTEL

SMILES	IC50 [2]	inhibition [6]	further results
CN(C)C(=O)c1cc(/C=C/S(N)(=O)=O)cc(C(=O)c2ccccc2)c1			inhibition [1]: 31%
CCc1ccc(/C=C/S(N)(=O)=O)cc1C(=O)c1ccccc1	0.77 µM		IC50 [3]: 0.2 µM
Cc1ccc(/C=C/S(N)(=O)=O)cc1C(=O)c1ccccc1	19 µM		inhibition [4]: 49%
CS(=O)(=O)/C=C/c1ccc(C(=O)c2ccccc2)cc1		14%	inhibition [5]: 6%
NS(=O)(=O)/C=C/c1cc(CO)cc(C(=O)c2ccccc2)c1			IC50 [3]: 5.4 µM
CC(C(=O)O)c1cc(/C=C/S(C)(=O)=O)cc(C(=O)c2ccccc2)c1 (stereo not given)	9.7 µM		
Cc1cc(/C=C/S(N)(=O)=O)ccc1C(=O)c1ccccc1		0%	inhibition [8]: 41%
CS(=O)(=O)c1ccc(C2=C(c3ccccc3)C(=O)OC2)cc1		0%	
CS(=O)(=O)/C=C/c1cccc(C(=O)c2ccccc2)c1			IC50 [11]: Not Active
Cc1cc(C(=O)c2ccccc2)ccc1/C=C/S(N)(=O)=O		0%	inhibition [5]: 14%
CCc1cc(C(=O)c2ccccc2)ccc1/C=C/S(N)(=O)=O	5.6 µM		IC50 [12]: 6.3 µM
NS(=O)(=O)/C=C/c1ccccc1C(=O)c1ccccc1		39%	inhibition [5]: 43%
CCOC(=O)/C=C/c1cc(CC)cc(C(=O)c2ccccc2)c1	5 µM		

Second part, led by results:

IC50 [2]	inhibition [6]	SMILES	further results
7.1 µM		CCN(CC)Cc1cc(/C=C/S(N)(=O)=O)cc(C(=O)c2ccccc2)c1	
8.4 µM	25%	NS(=O)(=O)/C=C/c1ccc(C(=O)c2ccccc2)cc1CO	
1.8 µM		CCc1cc(/C=C/C(N)=O)cc(C(=O)c2ccccc2)c1	IC50 [7]: 0.074 µM
0.2 µM		CCc1cc(/C=C/S(N)(=O)=O)cc(C(=O)c2ccccc2)c1	IC50 [9]: 12 µM; IC50 [3]: 18 µM; IC50 [10]: 100 µM
2.6 µM		CCc1cc(/C=C/C(=O)O)cc(C(=O)c2ccccc2)c1	
	16%	CCc1cc(/C=C/S(C)(=O)=O)cc(C(=O)c2ccccc2)c1	inhibition [1]: 40%
5.6 µM		N#Cc1cc(/C=C/S(N)(=O)=O)cc(C(=O)c2ccccc2)c1	IC50 [3]: 1.7 µM
0.98 µM		CC(C)=Cc1cc(/C=C/S(N)(=O)=O)cc(C(=O)c2ccccc2)c1	IC50 [3]: 3.6 µM
	0%	NS(=O)(=O)/C=C/c1cccc(C(=O)c2ccccc2)c1	inhibition [1]: 37%
20 µM		CC(=O)c1cc(/C=C/S(N)(=O)=O)cc(C(=O)c2ccccc2)c1	IC50 [3]: 6.4 µM
